Laboratory results taken from patent US20020028836A1, “Potassium channel openers” (priority 2000, published 2002).

Experiments:
[1] = system: primary cultured guinea-pig urinary bladder (GPB) cells; assay: Membrane hyperpolarization (MHP) assay, DiBAC(4)3 / FLIPR; assay type: cell-based; conditions: Cavia porcellus; for EC50: concentration that elicits 50% of the maximal response for the test sample; for Emax: maximal steady-state hyperpolarization, normalized to response with 10 μM P1075 (100%)
Outline: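 Primary smooth-muscle cells from male guinea-pig bladder, grown to confluence, loaded 30 min at 37° C with 5 μM DiBAC(4)3 in HEPES buffer pH 7.4. Fluorescence drop on FLIPR followed 25 min after compound; steady-state hyperpolarization normalized to 10 μM P1075 (100%), EC50 from four-parameter fit of five concentrations.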

| SMILES | EC50 [1] | Emax [1] | melting point |
| --- | --- | --- | --- |
| COc1ccc(NC(=S)NC(NC(=O)c2ccc(C)cc2)C(F)(F)F)cc1 (stereo not drawn) [Example 6, 4-methyl-N-(2,2,2-trifluoro-1-{[(4-methoxyanilino)carbothioyl]amino}ethyl)benzamide] | 1550 nM | 107% | 193 to 194 °C |
| N#CN=C(Nc1cccnc1)NC(NC(=O)c1ccc(Cl)cc1)C(F)(F)F (stereo not drawn) [Example 64, 4-chloro-N-(1-{[(cyanoimino)(3-pyridinylamino)methyl]amino}-2,2,2-trifluoroethyl)benzamide] | 400 nM | 89% | 136 to 138 °C |
| N#CN=C(Nc1cccnc1)NC(NC(=O)c1ccc(Cl)cc1)C12CC3CC(CC(C3)C1)C2 (stereo not drawn) [Example 100, N-(1-adamantyl{[(cyanoimino)(3-pyridinylamino)methyl]amino}methyl)-4-chlorobenzamide] | 180 nM | 87% | 209 to 210 °C |
| CC1=C(CC(NC(=O)c2ccc(Cl)cc2)NC(=N[N+](=O)[O-])Nc2cccnc2)C(C)(C)CCC1 (stereo not drawn) [Example 129, 4-chloro-N-[1-{[(nitroimino)(3-pyridinylamino)methyl]amino}-2-(2,6,6-trimethyl-1-cyclohexen-1-yl)ethyl]benzamide] | 120 nM | 132% | 217 to 218 °C |
| CCC(CC)(CCC#N)C(NC(=O)c1ccc(Cl)cc1)NC(=N[N+](=O)[O-])Nc1cccnc1 (stereo not drawn) [Example 132, 4-chloro-N-(4-cyano-1-{[(nitroimino)(3-pyridinylamino)methyl]amino}-2,2-diethylbutyl)benzamide] | 130 nM | 124% | 100 to 110 °C |
| C=CCC(C)(C)C(NC(=O)c1ccc(Cl)cc1)NC(=N[N+](=O)[O-])Nc1cccnc1 (stereo not drawn) [Example 127, 4-chloro-N-(1-{[(nitroimino)(3-pyridinylamino)methyl]amino}-2,2-dimethyl-4-pentenyl)benzamide] | 1200 nM | 65% | 200 to 203 °C |
| Cc1ccc(C(=O)NC(NC(=O)Nc2ccccc2F)C(Cl)(Cl)Cl)cc1 (stereo not drawn) [Example 43, 4-methyl-N-(2,2,2-trichloro-1-{[(2-fluoroanilino)carbonyl]amino}ethyl)benzamide] | 1210 nM | 80% | 257 to 259 °C |
| Cc1ccc(C(=O)NC(CF)NC(=S)Nc2cccc([N+](=O)[O-])c2)cc1 (stereo not drawn) [Example 32, N-(2-fluoro-1-{[(3-nitroanilino)carbothioyl]amino}ethyl)-4-methylbenzamide] | 1000 nM | 15% | 148 to 155 °C |
| Cc1ccc(C(=O)NC(NC(=NC#N)Nc2cncnc2)C(Cl)(Cl)Cl)cc1 (stereo not drawn) [Example 48, 4-methyl-N-(2,2,2-trichloro-1-{[(cyanoimino)(5-pyrimidinylamino)methyl]amino}ethyl)benzamide] | 200 nM | 96% | 186 to 188 °C |
| CC(C)(C)C(NC(=O)c1ccc(Br)cc1)NC(=NC#N)Nc1cccnc1 (stereo not drawn) [Example 105, 4-bromo-N-(1-{[(cyanoimino)(3-pyridinylamino)methyl]amino}-2,2-dimethylpropyl)benzamide] | 53 nM | 106% | 180 to 181 °C |
| O=C(Nc1cccnc1)NC(NC(=O)c1ccc(Cl)cc1)C(Cl)(Cl)Cl (stereo not drawn) [Example 41, 4-chloro-N-(2,2,2-trichloro-1-{[(3-pyridinylamino)carbonyl]amino}ethyl)benzamide] | 140 nM | 98% | 166 to 168 °C |
| CC(C)(Cc1ccccc1)C(NC(=O)c1ccc(Cl)cc1)NC(=NC#N)Nc1cccnc1 (stereo not drawn) [Example 102, 4-chloro-N-(1-{[(cyanoimino)(3-pyridinylamino)methyl]amino}-2,2-dimethyl-3-phenylpropyl)benzamide] | > 10000 nM | < 20% | 182 to 183 °C |
